Patent US20230293407A1, “Compositions Comprising (Bio)-Alkanediols with Antimicrobials for Product Protection” (Symrise AG, priority 2020, published 2023)

Assays:
[1] = system: Pseudomonas aeruginosa; experiment: preservation efficacy test (PET), European Pharmacopoeia 5.1.3; type: cell-based; conditions: for PA germ count, 2 days / PA germ count, 7 days / PA germ count, 14 days / PA germ count, 28 days: substance at given % in test formulation
[2] = system: Staphylococcus aureus; experiment: as above; type: cell-based; conditions: for number of microorganisms, 14 days / number of microorganisms, 28 days / number of microorganisms, 7 days: Staphylococcus aureus (SA)
[3] = system: Escherichia coli; experiment: as above; type: cell-based; conditions: for number of microorganisms, 7 days / number of microorganisms, 14 days / number of microorganisms, 28 days / number of microorganisms, 2 days: Escherichia coli (EC)
[4] = system: Candida albicans; experiment: as above; type: cell-based; conditions: for number of microorganisms, 28 days: Candida albicans (CA)
[5] = system: yeast; experiment: preservation efficacy test (PET), overview of the effect against yeast; type: cell-based, Candida albicans; conditions: PET in a shampoo formulation, result in words on Table 8
[6] = maximum water solubility of alkanediols, visual observation; type: physicochemical; conditions: ambient temperature after 24 h storage at 5° C.
From the text: The water solubility of a substance is the saturation mass concentration of the substance in water at a given temperature. The determination of the solubility in water relates to essentially pure substances which are stable in water and not volatile. The determination of the water solubility of the alkanediols is further described in the following Example 2.
For the determination of the maximum water solubility of an alkanediol, water and different concentrations of the respective alkanediol were blended by stirring. […] The determination of whether the alkanediol has dissolved in water is based entirely on visual observation.

[7] = system: Aspergillus brasiliensis; experiment: preservation efficacy test (PET), European Pharmacopoeia 5.1.3; type: cell-based
[8] = 2 days after inoculation, o/w emulsion (Table 53)
[9] = 7 days after inoculation, o/w emulsion (Table 53)
[10] = 14 days after inoculation, o/w emulsion (Table 53)
[11] = 28 days after inoculation, o/w emulsion (Table 53)
[12] = 7 days after inoculation, substance at given % in test formulation
[13] = 14 days after inoculation, substance at given % in test formulation
[14] = 28 days after inoculation, substance at given % in test formulation
[15] = PET in shampoo, 14 days after inoculation
[16] = PET in shampoo, 28 days after inoculation

CCCCC(O)C(C)O (centres unmarked) [2,3-heptanediol]
germ count PA, 2 days [1, 8]: 1
PA germ count, 2 days ([1]; 2 days after inoculation): 1
germ count PA, 7 days [1, 9]: 1
PA germ count, 7 days ([1]; 7 days after inoculation): 1
germ count PA, 14 days [1, 10]: 1
PA germ count, 14 days ([1]; 14 days after inoculation): 1
germ count PA, 28 days [1, 11]: 1
PA germ count, 28 days ([1]; 28 days after inoculation): 1
germ count SA, 7 days [2, 9]: 790.000
SA germ count, 7 days [2, 12]: 790.000
germ count SA, 14 days [2, 10]: 55
SA germ count, 14 days [2, 13]: 55
germ count SA, 28 days [2, 11]: 1
SA germ count, 28 days [2, 14]: 1
number of microorganisms, 14 days [2, 15]: 1
number of microorganisms, 28 days [2, 16]: 1
number of microorganisms, 28 days ([2]; PET, 28 days after inoculation): 1
germ count EC, 2 days [3, 8]: 170.000
EC germ count, 2 days ([3]; 2 days after inoculation, substance at given % in test formulation): 170.000
germ count EC, 7 days [3, 9]: 1.600
EC germ count, 7 days [3, 12]: 1.600
germ count EC, 14 days [3, 10]: 82
EC germ count, 14 days [3, 13]: 82
germ count EC, 28 days [3, 11]: 1
EC germ count, 28 days [3, 14]: 1
number of microorganisms, 7 days ([3]; PET in shampoo, 7 days after inoculation, listed as 0,4% 2,3 Heptandiol): 100.000
number of microorganisms, 14 days ([3]; PET in shampoo, 14 days after inoculation, listed as 0,4% 2,3 Heptandiol): 75.000
number of microorganisms, 28 days ([3]; PET in shampoo, 28 days after inoculation, listed as 0,4% 2,3 Heptandiol): 380.000
number of microorganisms, 28 days ([3]; PET, 28 days after inoculation): 1
germ count CA, 28 days [4, 11]: 370.000
CA germ count, 28 days [4, 14]: 370.000
number of microorganisms, 28 days [4, 16]: 1
antimicrobial efficacy against yeast [5]: antimicrobial efficacy
Maximum solubility in water [6]: 3.6 % by weight

CCCCCCC(O)C(C)O (centres unmarked) [2,3-nonanediol]
number of microorganisms, 14 days [2, 15]: 1
number of microorganisms, 28 days [2, 16]: 1
number of microorganisms, 7 days ([2]; PET, 7 days after inoculation): 66.000
number of microorganisms, 14 days ([2]; PET, 14 days after inoculation): 1
number of microorganisms, 28 days ([2]; PET, 28 days after inoculation): 1
number of microorganisms, 2 days ([3]; PET, 2 days after inoculation): 810.000
number of microorganisms, 7 days ([3]; PET, 7 days after inoculation): 27.000
number of microorganisms, 14 days ([3]; PET, 14 days after inoculation): 1.100
number of microorganisms, 28 days ([3]; PET, 28 days after inoculation): 1
number of microorganisms, 28 days [4, 16]: 1
number of microorganisms, 28 days ([4]; PET, 28 days after inoculation): 970.000
number of microorganisms, 14 days ([7]; PET in shampoo, Aspergillus brasiliensis (AB), 14 days after inoculation, listed as 0,1% 2,3 Nonanediol): 680.000
number of microorganisms, 28 days ([7]; PET in shampoo, Aspergillus brasiliensis (AB), 28 days after inoculation, listed as 0,1% 2,3 Nonanediol): 530.000
number of microorganisms, 14 days ([7]; PET, Aspergillus brasiliensis (AB), 14 days after inoculation): 890.000
antimicrobial efficacy against yeast [5]: antimicrobial efficacy
Maximum solubility in water [6]: 0.3 % by weight

CCCCCC(O)C(C)O (centres unmarked) [2,3-octanediol]
PA germ count, 2 days ([1]; 2 days after inoculation): 1
PA germ count, 7 days ([1]; 7 days after inoculation): 1
PA germ count, 14 days ([1]; 14 days after inoculation): 1
PA germ count, 28 days ([1]; 28 days after inoculation): 1
count at 2 days ([1]; PA, 2 days after inoculation, use concentration in label): 1
count at 7 days ([1]; PA, 7 days after inoculation, use concentration in label): 1
count at 14 days ([1]; PA, 14 days after inoculation, use concentration in label): 1
count at 28 days ([1]; PA, 28 days after inoculation, use concentration in label): 1
SA germ count, 14 days [2, 13]: 1
SA germ count, 28 days [2, 14]: 1
number of microorganisms, 7 days ([2]; PET in shampoo, 7 days after inoculation): 1
number of microorganisms, 14 days [2, 15]: 1
number of microorganisms, 28 days [2, 16]: 1
number of microorganisms, 7 days ([2]; PET, 7 days after inoculation): 84.000
number of microorganisms, 14 days ([2]; PET, 14 days after inoculation): 1
number of microorganisms, 28 days ([2]; PET, 28 days after inoculation): 1
count at 2 days ([2]; SA, 2 days after inoculation, use concentration in label): 520.000
count at 7 days ([2]; SA, 7 days after inoculation, use concentration in label): 9.300
count at 14 days ([2]; SA, 14 days after inoculation, use concentration in label): 1
count at 28 days ([2]; SA, 28 days after inoculation, use concentration in label): 1
count at 2 days ([3]; EC, 2 days after inoculation, use concentration in label): 130.000
count at 7 days ([3]; EC, 7 days after inoculation, use concentration in label): 19.000
count at 14 days ([3]; EC, 14 days after inoculation, use concentration in label): 290
count at 28 days ([3]; EC, 28 days after inoculation, use concentration in label): 18
number of microorganisms, 28 days ([3]; PET in shampoo, 28 days after inoculation, listed as 0,4% 2,3 Octanediol): 600.000
number of microorganisms, 2 days ([3]; PET, 2 days after inoculation): 48.000
number of microorganisms, 7 days ([3]; PET, 7 days after inoculation): 290
number of microorganisms, 14 days ([3]; PET, 14 days after inoculation): 1
number of microorganisms, 28 days ([3]; PET, 28 days after inoculation): 1
count at 2 days ([4]; CA, 2 days after inoculation, use concentration in label): 660.000
count at 7 days ([4]; CA, 7 days after inoculation, use concentration in label): 210.000
count at 14 days ([4]; CA, 14 days after inoculation, use concentration in label): 120.000
count at 28 days ([4]; CA, 28 days after inoculation, use concentration in label): 11.000
number of microorganisms, 28 days [4, 16]: 1
number of microorganisms, 28 days ([4]; PET, 28 days after inoculation): 390.000
count at 2 days ([7]; AB, 2 days after inoculation, use concentration in label): 940.000
count at 7 days ([7]; AB, 7 days after inoculation, use concentration in label): 660.000
count at 14 days ([7]; AB, 14 days after inoculation, use concentration in label): 820.000
count at 28 days ([7]; AB, 28 days after inoculation, use concentration in label): 560.000
number of microorganisms, 14 days ([7]; PET in shampoo, Aspergillus brasiliensis (AB), 14 days after inoculation, listed as 0,1% 2,3 Octanediol): 250.000
antimicrobial efficacy against yeast [5]: antimicrobial efficacy
Maximum solubility in water [6]: 1.5 % by weight
